From the supplement of paper PMC10331698
± gives the standard deviation of the averaged measurements.

Experiments:
Assay in all cases: level (log10 ratio to DMSO vehicle control); higher = higher biomarker level / cell amount than vehicle control
[1] = compound: C[C@@H]1C[C@H]2[C@@H]3CCC4=CC(=O)C=C[C@]4(C)[C@@]3(F)[C@@H](O)C[C@]2(C)[C@@]1(O)C(=O)COP(=O)(O)O [Dexamethasone sodium phosphate] (in DMSO)
Method: (§1)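 BioMAP Diversity Plus panel of 12 human primary cell co-culture systems (3C, 4H, LPS, SAg, BT, BF4T, BE3C, CASM3C, HDF3CGF, KF3CT, MyoF, Mphg). Compounds were added 1 h before stimulation and left for 24 h (MyoF 48 h; BT 72 h for soluble read-outs or 6 d for IgG). Biomarkers were read by ELISA, cytotoxicity by SRB, PBMC viability and proliferation by Alamar Blue. Each well value was divided by the mean of 8 DMSO control wells on the same plate and log10 transformed; duplicate blinded samples were tested at 4 concentrations.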

[2] = compound: O=C(O)C(F)(F)C(F)(F)C(F)(F)C(F)(F)C(=O)O [Octafluoroadipic acid] (in DMSO)
Method: as §1

[3] = compound: O=C(O)C(F)(OC(F)(F)C(F)(F)C(F)(F)F)C(F)(F)F [Ammonium perfluoro-2-methyl-3-oxahexanoate] (in Water)
Method: as §1

[4] = compound: O=S(=O)(O)C(F)(F)C(F)(F)C(F)(F)C(F)(F)C(F)(F)C(F)(F)C(F)(F)F [Perfluoroheptanesulfonic acid] (in DMSO)
Method: as §1

[5] = compound: O=S(=O)(O)CCC(F)(F)C(F)(F)C(F)(F)C(F)(F)C(F)(F)C(F)(F)C(F)(F)C(F)(F)F [8:2 Fluorotelomer sulfonic acid] (in DMSO)
Method: as §1

[6] = compound: OCC(F)(F)OC(F)(F)C(F)(F)OC(F)(F)C(F)(F)OC(F)(F)CO [1H,1H,11H,11H-Perfluorotetraethylene glycol] (in DMSO)
Method: as §1

Test System	level (log10) ([1]; 1500 nM)	level (log10) ([1]; 4400 nM)	level (log10) ([1]; 13000 nM)	level (log10) ([1]; 40000 nM)	level (log10) ([2]; 6700 nM)	level (log10) ([2]; 20000 nM)	level (log10) ([2]; 60000 nM)	level (log10) ([3]; 6700 nM)	level (log10) ([3]; 20000 nM)	level (log10) ([3]; 60000 nM)	level (log10) ([4]; 1500 nM)	level (log10) ([4]; 4400 nM)	level (log10) ([4]; 13000 nM)	level (log10) ([4]; 40000 nM)	level (log10) ([5]; 6700 nM)	level (log10) ([5]; 20000 nM)	level (log10) ([5]; 60000 nM)	level (log10) ([6]; 6700 nM)	level (log10) ([6]; 20000 nM)	level (log10) ([6]; 60000 nM)
CASM3C:CD87/uPAR	0.0255 ± 0.011	0.0045 ± 0.005	-0.026 ± 0.024	-0.0215 ± 0.076	-0.012 ± 0.0057	-0.014 ± 0.0085	-0.0015 ± 0.0064	-0.031 ± 0.076	0.0075 ± 0.011	0.014 ± 0.027	-0.028 ± 0.042	0.0045 ± 0.049	-0.0165 ± 0.049	-0.0555 ± 0.035	0.025 ± 0.0099	0.022 ± 0.0014	-0.0055 ± 0.016	-0.019 ± 0.024	-0.026 ± 0.034	-0.011 ± 0.018
CASM3C:CD106/VCAM-1	0.117 ± 0.06	0.11 ± 0.049	0.0875 ± 0.016	0.076 ± 0.054	-0.0055 ± 0.011	-0.011 ± 0.013	-0.019	-0.0955 ± 0.061	-0.0645 ± 0.005	-0.083 ± 0.011	0.0085 ± 0.057	0.0125 ± 0.0035	0.0055 ± 0.05	-0.0355 ± 0.0035	0.0015 ± 0.029	-0.0425 ± 0.025	-0.071 ± 0.033	0.025 ± 0.011	0.017 ± 0.011	0.032 ± 0.0085
CASM3C:CD141/Thrombomodulin	0.107 ± 0.11	0.0895 ± 0.067	0.073 ± 0.041	0.123 ± 0.011	0.0115 ± 0.0021	0.0105 ± 0.021	0.0065 ± 0.022	0.113 ± 0.0057	0.0435 ± 0.11	0.035 ± 0.038	0.019 ± 0.037	-0.019 ± 0.028	-0.0185 ± 0.022	0.038 ± 0.078	-0.0045 ± 0.029	-0.026 ± 0.04	-0.0265 ± 0.0035	-0.0135 ± 0.015	-0.009 ± 0.0085	0.035 ± 0.0042
CASM3C:CD142/Tissue Factor	0.101 ± 0.034	0.099 ± 0.042	0.0875 ± 0.023	0.079 ± 0.0028	-0.011 ± 0.0071	-0.0045 ± 0.0092	-0.0145 ± 0.00071	0.022 ± 0.013	-0.0045 ± 0.028	-0.009 ± 0.089	-0.0305 ± 0.035	-0.0125 ± 0.019	-0.026 ± 0.024	-0.04 ± 0.068	-0.045 ± 0.0042	-0.067 ± 0.027	-0.0195 ± 0.03	-0.0165 ± 0.032	-0.024 ± 0.013	-0.0125 ± 0.0035
CASM3C:CXCL8/IL-8	-0.075 ± 0.044	-0.0815 ± 0.023	-0.092 ± 0.0057	-0.084 ± 0.0042	-0.0005 ± 0.0092	-0.002 ± 0.0071	0.0045 ± 0.022	0.005 ± 0.0042	0.034 ± 0.024	0.056 ± 0.024	0.0015 ± 0.013	-0.005 ± 0.0099	-0.0105 ± 0.005	-0.0005 ± 0.019	0.019 ± 0.018	-0.0065 ± 0.012	0.0035 ± 0.013	0.002 ± 0.016	-0.0085 ± 0.016	-0.004 ± 0.011
CASM3C:CXCL9/MIG	0.0525 ± 0.037	0.038 ± 0.0085	0.0335 ± 0.0021	0.0595 ± 0.025	-0.0055 ± 0.0078	-0.01 ± 0.0071	0.001 ± 0.021	0.039 ± 0.038	0.05 ± 0.0071	0.0595 ± 0.015	0.012 ± 0.035	-0.008 ± 0.0099	0.0015 ± 0.005	0.037 ± 0.05	-0.03 ± 0.02	-0.032 ± 0.0071	0 ± 0.021	0.0135 ± 0.028	0.0135 ± 0.013	0.0415 ± 0.00071
CASM3C:HLA-DR	0.0495 ± 0.06	0.0425 ± 0.022	0.02 ± 0.013	0.0355 ± 0.023	-0.0035 ± 0.019	-0.0095 ± 0.032	-0.0025 ± 0.0078	0.0195 ± 0.054	0.01 ± 0.059	0.004 ± 0.0071	-0.011 ± 0.0028	0.009 ± 0.0085	-0.0255 ± 0.028	-0.009 ± 0.031	0.0155 ± 0.023	-0.009 ± 0.024	-0.015 ± 0.017	-0.002 ± 0.0099	-0.0115 ± 0.0021	-0.005 ± 0.0085
CASM3C:IL-6	-0.166 ± 0.096	-0.232 ± 0.023	-0.246 ± 0.015	-0.189 ± 0.092	-0.0225 ± 0.0092	-0.0115 ± 0.0064	0.013 ± 0.061	0.0075 ± 0.005	-0.052 ± 0.042	-0.0375 ± 0.047	0.021 ± 0.05	-0.029 ± 0.0014	-0.0305 ± 0.026	0.011 ± 0.088	0.0025 ± 0.029	-0.0075 ± 0.0064	-0.0005 ± 0.018	-0.0195 ± 0.021	-0.0305 ± 0.026	-0.013 ± 0.035
CASM3C:LDLR	0.05 ± 0.0057	0.03 ± 0.033	0.0065 ± 0.03	0.031 ± 0.05	-0.0215 ± 0.023	-0.008 ± 0.018	0.029 ± 0.047	-0.061 ± 0.057	-0.032 ± 0.04	-0.0545 ± 0.021	-0.0275 ± 0.0021	-0.0135 ± 0.00071	-0.0215 ± 0.0092	-0.0165 ± 0.011	-0.0005 ± 0.0064	0.0135 ± 0.013	0.0415 ± 0.026	-0.019 ± 0.0028	-0.025 ± 0.0042	0.0225 ± 0.022
CASM3C:M-CSF	0.157 ± 0.031	0.155 ± 0.023	0.141 ± 0.0085	0.151 ± 0.0092	-0.039 ± 0.02	-0.024 ± 0.042	0.0155 ± 0.1	-0.049 ± 0.016	-0.0405 ± 0.0092	-0.0405 ± 0.022	-0.0215 ± 0.0021	-0.0305 ± 0.0035	-0.039 ± 0.028	-0.02 ± 0.047	0.0005 ± 0.015	-0.0115 ± 0.0021	0.037 ± 0.028	-0.0255 ± 0.026	-0.035 ± 0.02	-0.0345 ± 0.011
CASM3C:PAI-I	0.011 ± 0.018	0.0125 ± 0.018	0.0145 ± 0.015	0.015 ± 0.0028	0.001 ± 0.0057	-0.0015 ± 0.00071	0.002 ± 0.013	-0.007 ± 0.0085	-0.0005 ± 0.0092	-0.0025 ± 0.013	0.006 ± 0.0057	0.0075 ± 0.0064	0.009 ± 0.0042	0.008 ± 0.0042	-0.0015 ± 0.019	0.012 ± 0.018	0.0095 ± 0.012	-0.0035 ± 0.012	0.0005 ± 0.0035	0.007 ± 0.0014
CASM3C:Proliferation	0.084 ± 0.025	0.033 ± 0.024	0.062 ± 0.025	0.059 ± 0.0042	-0.066 ± 0.0071	-0.004 ± 0.073	0.014 ± 0.051	-0.07 ± 0.085	-0.095 ± 0.02	-0.104 ± 0.065	0.0285 ± 0.0092	-0.026	-0.028 ± 0.016	-0.034 ± 0.028	0.005 ± 0.072	0.0065 ± 0.022	0.0245 ± 0.023	-0.039 ± 0.079	-0.039 ± 0.062	-0.12 ± 0.03
CASM3C:SRB	-0.0005 ± 0.016	-0.008 ± 0.017	-0.013 ± 0.0057	-0.0115 ± 0.00071	-0.006 ± 0.0057	-0.0025 ± 0.005	-0.006 ± 0.0057	-0.007 ± 0.0057	-0.008 ± 0.0014	-0.0105 ± 0.0064	0.004 ± 0.0057	0.0045 ± 0.00071	-0.0075 ± 0.0035	-0.011 ± 0.0014	0.0075 ± 0.005	0.0055 ± 0.005	0.0105 ± 0.0035	-0.0025 ± 0.0064	-0.008 ± 0.0057	-0.0275 ± 0.012
CASM3C:Serum Amyloid A	0.489 ± 0.034	0.473 ± 0.015	0.4675 ± 0.0021	0.469 ± 0.022	-0.032 ± 0.037	-0.0515 ± 0.011	0.0105 ± 0.005	-0.031 ± 0.04	-0.034 ± 0.03	-0.0005 ± 0.049	0.03 ± 0.051	-0.027 ± 0.0028	-0.0305 ± 0.032	-0.013 ± 0.048	0.0195 ± 0.0064	0.0475 ± 0.025	0.096 ± 0.0042	0.0105 ± 0.0092	-0.0065 ± 0.00071	0.002 ± 0.045
HDF3CGF:CCL2/MCP-1	-0.015 ± 0.035	-0.0405 ± 0.023	-0.038 ± 0.0099	-0.044 ± 0.0085	-0.0025 ± 0.052	0.0075 ± 0.036	0 ± 0.033	0.011 ± 0.025	0.0285 ± 0.0021	0.019 ± 0.0028	0.006	0.0055 ± 0.0035	0.005 ± 0.014	0.021 ± 0.038	0.0005 ± 0.022	-0.008 ± 0.03	0.0115 ± 0.022	-0.044 ± 0.031	-0.073 ± 0.027	-0.172 ± 0.067
